From patent US9198942B1, “Method of preparing bioactive compound from solid-state cultivated Antrodia cinnamomea mycelium for anti-metastasis against lung cancer cells” (TAIWAN LEADER BIOTECH CORP., priority 2014, dated 2015)

Columns and labels:
Assay type in all cases: cell-based, human
A549 lung cancer cells [1] = test: MTT survival rate of A549 cells; conditions: A549, 0~40 μM, 24 hr
Method: (§1) The present invention selects a human lung cancer cell, A549, for exploring lung cancer cell metastasis. For culturing A549, the A549 cells grown in 75 T flask are replanted in a 10 square-centimeter (cm^2) dish at a seeding density of 2×10^5 cells per square-centimeter (cells/cm^2) to be cultured at 37 Celsius degrees (° C.) in an incubator having 5% carbon dioxide (CO2). The culture medium used is Ham's F12 (which is recommended by Bioresources Collection and Research Center (BCRC), Taiwan, and American Type Culture Center (ATCC)) and is added with extra 10% fetal bovine serum. State-of-Use 2: Preparing Extracts of Solid-State Cultivated Antrodia cinnamomea Mycelium
At first, A549 cells are cultured as described in state-of-use 1. After being washed with tripsin, the cells are replanted for 24 hr in a dish having 24 wells at a seeding density of 2×10^5 cells/cm^2. In Table 1, Leader 1 having a concentration of 0, 5, 10, or 40 μM is cultured for 24 hr to be applied to A549, where Leader 1 having 0 μM is added with DMSO to be used as a control group. […] Then, the cell membrane and the blue-violet crystals are dissolved with DMSO to acquire light-absorbance rates with a wavelength of 570 nm for forming a statistical diagram by using sigma plot 10.0.

A549 lung cancer cells [2] = test: Wound healing of A549 cells; conditions: A549, 5-40 μM, observed at 0, 12, 24 or 48 hr; especially 40 μM
Method: as §1
At first, lung cancer cells A549 are cultured as described in state-of-use 1. After being washed down with tripsin, the cells are replanted in a 12-well plate at a seeding density of […] for 24 hr for attachment. Then, a wound line is made in each well. After floating part of the cells are removed by being slight-washed with PBS, the cells are added to culture media having concentrations of 0, 5, 10, 20 and 40 μM of Leader 1 for observation at time points of 0, 12, 24 or 48 hr to be photographed as records, where a medium dosed with 0 μM of DMSO is used as a control group.

A549 lung cancer cells [3] = test: Transwell migration of A549 cells; conditions: A549, 5-40 μM for 24 hr, with or without TNF-α induction, 12 or 24 hr; especially 40 μM
Method: 24-well transwell kits (Millipore Co.) are used for analyzing lung cancer cell migration.
At first, lung cancer cells A549 are cultured as described in state-of-use 1. After being washed down with tripsin, the cells are replanted in a 12-well plate at a seeding density of 2×10^5 cells/cm^2 for 24 hr for attachment. After being added into media having concentrations of 0, 5, 10 and 40 μM of Leader 1 for 24 hr, the cells are rinsed with PBS and, then, dropped down with tripsin. The cells are loaded into centrifuge tubes for centrifugal rotation at a speed of 1280 rpm for 3 min to remove supernatant. Residual serum is removed by slow-washing with PBS. Then, centrifugal rotations are processed at a speed of 1280 rpm for 3 min. The cells are added into culture media at a density of 2×10^5 cells/cm^2, where the media are located at an upper layer of the kit and injected with a 200 μl solution containing only 0.1% fetal bovine serum. Another media are located at a lower layer of the kit and containing 20% fetal bovine serum (induced or not induced with TNF-α). The kit having the two layers of media is put in an incubator to be observed after 12 or 24 hr.
(§2) The kit is soaked in methanol and stayed still for 20 min to be dried afterwards. Then, the kit is soaked in Gimsa to be dyed for 20 min. […]

A549 lung cancer cells [4] = test: Matrigel transwell invasion of A549 cells; conditions: A549, 5-40 μM for 24 hr, 12 or 24 hr, especially 40 μM
Method: The 24-well kit is used for analyzing lung cancer cell invasion. The kit is prepared by injecting Matrigel (3 mg/ml-well, BD science) into the upper layer of the kit, to be placed in an incubator for 24 hr and, then, process solidification.
At first, lung cancer cells A549 are cultured as described in state-of-use 1. After being washed down with tripsin, the cells are replanted in a 6-well plate at a seeding density of 2×10^5 cells/cm^2 for 24 hr for attachment. After being added into media having concentrations of 0, 5, 10 and 40 μM of Leader 1 for 24 hr, the cells are rinsed with PBS and, then, dropped down with tripsin. The cells are loaded into centrifuge tubes for centrifugal rotation at a speed of 1280 rpm for 3 min to remove supernatant. Residual serum is slowly removed by washing with PBS. Then, centrifugal rotations are processed at a speed of 1280 rpm for 3 min. The cells are added at a density of 2×10^5 cells/cm^2 into culture media, where the media are located at the upper layer and injected with a 200 μl solution containing only 0.1% fetal bovine serum. Another media are located at the lower layer and contain 20% fetal bovine serum. The kit is put in an incubator to be observed after 12 or 24 hr.
as §2

[5] = tested on: matrix metalloproteinase (MMP-2, MMP-9); test: Gelatin zymography of gelatinase activity in A549 cells; conditions: A549, 5-40 μM for 24 hr; especially 40 μM
Method: Electrophoresis is used to detect hydrolytic enzymes. Gelatin zymography is used to analyze activities of gelatinases (MMP-2, MMP-9) in matrix metalloproteinase (MMP) of lung cancer cells.
(§3) At first, lung cancer cells A549 are cultured as described in state-of-use 1. After being washed down with tripsin, the cells are replanted in a 12-well plate at a seeding density of 2×10^5 cells/cm^2 for 24 hr for attachment. Then, the kit is rinsed with PBS two times. After being added into media having concentrations of 0, 5, 10 and 40 μM of Leader 1 for 24 hr, the cells are added into media having 1% fetal bovine serum for 24 hr for obtaining culture media containing the cells. The kit is put into an Eppendorf centrifuge tube for centrifugal rotation at a 1250 rpm speed for 10 min. Then, the supernatant is taken out to be stored at −20° C.
An equivalent amount of the supernatant is added into 8%-gradient colloidal wells of gel (SDS-PAGE, containing 1 mg/ml gelatin) with a 6-times MMP dye. A running buffer is added and reaction stops after 45 kD of a MMP marker is resolved into the gel with a current of 80 V and 300 mA.
(§4) The gel is taken out for reaction in a zymography renaturing buffer at a 35 rpm speed. The reaction is done for 2 times at a room temperature and it takes 30 min for each time. […]

[6] = tested on: urokinase-type plasminogen activator (uPA); test: Casein-plasminogen zymography of uPA activity in A549 cells; conditions: A549, 5-40 μM for 24 hr; especially 40 μM
Method: Electrophoresis is used for detecting hydrolytic enzymes. The part regarding plasminogen in casein-zymography is used for analyzing activity of urokinase-type plasminogen activator (uPA) of lung cancer cells, where uPA would decompose plasminogen into plasmin.
as §3
An equivalent amount of the supernatant is added into 8%-gradient colloidal wells of gel (containing 15 μl/ml plasminogen and 1 mg/ml gelatin) with a 6-times MMP dye. A running buffer is added and reaction stops after 45 kD of a MMP marker is resolved into the gel with a current of 80 V and 300 mA.
as §4

[7] = tested on: related proteases and proteins that promote metastasis (p-Akt, E-cadherin, MMP-2,9, TIMP-1); test: Western blot of metastasis-related proteases and proteins in lung cancer cells; conditions: β-actin as control
Method: After total proteins of the cell are obtained, an equivalent amount of proteins are added to 8-10% gradient electrophoresis gel wells at a current of 80 V and 300 mA for 240 min for separating the total proteins. The total proteins sorted according to their sizes are blotted on a polyvinylidene difluoride (PVDF) membrane at a condition using a 100 V current for 2 hr. Then, the PVDF membrane is reacted with a blocking buffer for 1 hr. Therein, the blocking buffer contains 10% w/v skim milk powder in a TBS-T buffer, and the TBS-T buffer contains a TBS buffer having 0.1% Tween 20.
Thereafter, the PVDF membrane is immersed in an antibody solution of actin (Cell signaling Co.); an antibody solution of p-Akt or protein kinase B (1:1000, Cell signaling Co.); an antibody solution of E-cadherin (1:1000, Cell signaling Co.); an antibody solution of MMP-2,9 in matrix metalloproteinase (1:1000, Santa Cruz Co.); and an antibody solution of TIMP-1 (1:1000, Cell signaling Co.). […]
Then, the PVDF membrane is immersed in an anti-mouse secondary antibody solution having horseradish peroxidase and an anti-rabbit secondary antibody solution for reaction at a room temperature for 1˜2 hr. […] Then, an enhanced chemiluminescene (ECL) regent is used to detect fluorescence intensity, where β-actin protein is used as a control group of expression for statistical mapping with sigma plot 10.0.

## COc1cc(C)c(OC)c(OC)c1O [Leader 1, 2,3,6-trimethoxy-4-methylphenol]
A549 lung cancer cells [1]
  survival rate of lung cancer cells (cytotoxicity): no cytotoxicity to lung cancer cells
A549 lung cancer cells [2]
  suppressing wound healing of lung cancer cells: shows its ability on suppressing wound healing of lung cancer cells
A549 lung cancer cells [3]
  suppressing migration of lung cancer cells: shows activity on suppressing migration of lung cancer cells
A549 lung cancer cells [4]
  suppressing invasion of lung cancer cells: shows ability on suppressing invasion of lung cancer cells
[5]
  suppressing matrix metalloproteinase (MMP-2, MMP-9) activity of lung cancer cells: shows ability on suppressing matrix metalloproteinase (MMP-2, MMP-9) activity of lung cancer cells
[6]
  suppressing plasminogen activator of lung cancer cells: shows activity on suppressing plasminogen activator of lung cancer cells
[7]
  suppressing related proteases and proteins that promote metastasis of lung cancer cells: shows ability on suppressing related proteases and proteins that promote metastasis of lung cancer cells
